Measurements: patent publication US4496580A, “Oxothienobenzoxepins” (Hoechst-Roussel Pharmaceuticals Inc., priority 1981, dated 1985)

Legend:
Format in all cases: in vivo
[1] = test system: 2-phenyl-1,4-benzoquinone-induced writhing; test: 2-phenyl-1,4-benzoquinone-induced writhing test in mice (PQW); settings: for ED50: Mus musculus, PQW, mice, analgesic
Excerpt: (The phenylquinone-induced writhing test is hereinafter referred to as PQW).

[2] = ulcerogenic activity test (GI); settings: for TD50: in vivo
Excerpt: (The ulcerogenic ativity test is hereafter referred to as GI).

[3] = test system: carrageenan-induced rat paw edema; test: carrageenan-induced rat paw edema antiinflammatory assay (CPE); settings: for ED50: CPE, rat, antiinflammatory
Excerpt: (The carrageenan-induced rat paw edema test is hereinafter referred to as CPE).

SMILES	ED50 [1]	TD50 [2]	ED50 [3]	activity in the PQW test ([1]; result in words)	incidence of ulcers / ulcerogenic activity ([2]; result in words, test animals, very high dosage levels)	activity in the CPE test ([3]; result in words)
O=C(O)Cc1ccc2c(c1)C(=O)c1sccc1CO2 [Compound 1, reference compound]	4.5 mg/kg	33.7 mg/kg	3.4 mg/kg			
CC(C)OC(=O)Cc1ccc2c(c1)C(=O)c1sccc1CO2 [Compound 2, reference compound]	13.7 mg/kg	21.6 mg/kg	1.6 mg/kg			
O=C1c2cc(CCCCO)ccc2OCc2ccsc21 [Compound 3, 4-(4,10-Dihydro-10-oxothieno[3,2-c][1]benzoxepin-8-yl)butanol]	7.4 mg/kg	> 400 mg/kg	8.6 mg/kg	exhibit activity	very low incidence of ulcers	exhibit activity
